Data taken from patent EP0100673A2, “A method of enhancing neurofiber regrowth” (THE RESEARCH FOUNDATION OF STATE UNIVERSITY OF NEW YORK, priority 1982, dated 1984).

What was measured:
[1] = tested on: chicken pectoralis muscle; settings: in vivo; cited from earlier work
sciatic nerve [2] = assay: Counts of myelinated axons 5.0 mm distal to repair by light microscopy; format: in vivo, rat; settings: treated nerves vs. control nerve
Procedure: (§1) lwenty raty art anenthetizve with sel rompun (0.5 cc total volume). The right sciatic nerve is exposed and severed with microneuroscissors, and subsequently repaired microsurgically with 6-8 circumferential microsutures using 10-0 nylon. Immediately following surgery the treated animals receive 12 mg/kg Ac leupeptin in 5% DMSO (dimethylsulphoxide) as a bath on their sciatic nerve, 0.25 cc. total volume. Then the treated animals are injected intramuscularly in right hindlimb with 0.25 cc of a solution containing 12 mg/kg Ac leupeptin in 5% DMSO. Control animals receive the same surgical treatment, but the bath and intramuscular injection consist only of the solvent and 5% DMSO.
(§2) Thereafter, treated animals are injected twice weekly in the operated hindlimb with 12 mg/kg Ac leupeptin in 5% DMSO (0.25 cc total volume) for periods of 1 week, 1 month, two months, three months - and six months. Control animals are injected with 0.25 cc of 5% DMSO twice weekly in the operated hindlimb for the same time period.
(§3) Two treated and two control animals are assigned to each of the stated time periods.
(§4) A ten mm. portion of the repaired sciatic nerve is excised from each animal. This is fixed in 3.0% glutaraldehyde in 0.1 M sodium cacodylate, pH 7.3, overnight for electron microscopy. After post-fixation in 1.0% osmium tetroxide, ethanol dehydration and embedding in Polybed 812, both thick (1 micron) and thin (500 A°) transverse sections are cut on a ultramicrotome. Portions of the excised muscles receive similar preparation for electron microscopy.
(§5) Thick sections of the sciatic nerve are placed on microscope slots stained with toluidine blue and photographed at a constant magnification in the light microscope. Thin sections of both nerve and muscles are placed on 300 mesh copper grid calm, stained with uranyl acetate and lead citrate and photographed using a Hitachi HU-12 electron microscope.

[3] = tested on: chicken and rat skeletal and fetal heart preparations; settings: cited from earlier work
sciatic nerve [4] = assay: Counts of myelinated and unmyelinated axons 5.0 mm distal to repair by electron microscopy; format: in vivo, rat; settings: ultrastructural data, up to and including 6 months of treatment
Procedure: as §1, §2, §3, §4, §5

sciatic nerve [5] = assay: Counts of myelinated axons 5.0 mm proximal to repair by light microscopy; format: in vivo, rat; settings: all time periods, treated nerves compared to control
Procedure: as §1, §2, §3, §4, §5

[6] = tested on: calcium activated neutral protease; settings: in muscle, squid axoplasm and rat sciatic nerve; cited from earlier work
thrombokinase = settings: cited from earlier work
neurofiber regrowth [7] = assay: Effective dose based upon laboratory tests; format: in vivo, mammals; settings: of mammalian weight, single or divided doses
From the text: The exact dose to be administered is dependent upon the age, weight and particular conditions of the individual involved.

plasmin = plasmin (Homo sapiens, UniProt P00747); settings: cited from earlier work
plasmin, sequence (P00747 97-810, species assumed): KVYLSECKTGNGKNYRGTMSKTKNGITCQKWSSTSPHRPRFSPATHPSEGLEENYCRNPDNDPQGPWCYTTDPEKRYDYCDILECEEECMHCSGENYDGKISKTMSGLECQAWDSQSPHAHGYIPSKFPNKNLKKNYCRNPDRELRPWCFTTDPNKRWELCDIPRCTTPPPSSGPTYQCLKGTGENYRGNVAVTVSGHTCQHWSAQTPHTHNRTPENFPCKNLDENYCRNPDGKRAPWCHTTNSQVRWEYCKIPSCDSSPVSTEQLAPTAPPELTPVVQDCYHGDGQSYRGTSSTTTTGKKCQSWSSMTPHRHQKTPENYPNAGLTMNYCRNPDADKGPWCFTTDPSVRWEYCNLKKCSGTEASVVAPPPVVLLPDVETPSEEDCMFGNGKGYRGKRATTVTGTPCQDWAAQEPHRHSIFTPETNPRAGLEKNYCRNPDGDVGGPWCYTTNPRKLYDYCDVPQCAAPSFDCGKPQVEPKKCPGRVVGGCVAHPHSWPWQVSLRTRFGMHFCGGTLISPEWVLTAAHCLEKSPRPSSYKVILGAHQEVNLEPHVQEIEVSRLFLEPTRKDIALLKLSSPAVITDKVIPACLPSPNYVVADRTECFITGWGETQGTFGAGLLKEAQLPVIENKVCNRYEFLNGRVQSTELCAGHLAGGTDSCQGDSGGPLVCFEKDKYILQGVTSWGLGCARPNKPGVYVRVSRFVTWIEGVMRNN

cathespin B = settings: in muscle, squid axoplasm and rat sciatic nerve; cited from earlier work
neurofiber regrowth [8] = assay: Neurofiber regrowth after microsurgical neurorrhaphy (summary of tables I-V); format: in vivo, mammals
Procedure: as §1, §2, §3
All animals are sacrified by an overdose of pentobarbital, 1.0 cc total volume. […] Myofiber diameters are determined by photographing hematoxylin and eosin sections at a constant magnification in the light microscope. […]

kaleikrein = settings: cited from earlier work
cathespin L = settings: in muscle, squid axoplasm and rat sciatic nerve; cited from earlier work
papain = molecular target: T1, papain (Carica papaya, UniProt P00784); settings: cited from earlier work
T1 sequence (P00784 134-345): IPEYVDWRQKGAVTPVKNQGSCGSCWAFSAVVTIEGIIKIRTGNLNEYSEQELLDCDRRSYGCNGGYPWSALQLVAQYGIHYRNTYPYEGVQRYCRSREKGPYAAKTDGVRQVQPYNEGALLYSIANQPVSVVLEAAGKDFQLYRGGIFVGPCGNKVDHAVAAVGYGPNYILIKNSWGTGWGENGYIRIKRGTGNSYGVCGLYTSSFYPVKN

In the case of CC(=O)N[C@@H](CC(C)C)C(=O)N[C@@H](CC(C)C)C(=O)N[C@H](C=O)CCCNC(=N)N [leupeptin], the denervation induced atrophy [1] is listed as “successfully used in vivo as an inhibitor of denervation induced atrophy”, the “Wallerian degeneration distal to repair” value (sciatic nerve [2]) is listed as “do not undergo as severe a form of Wallerian degeneration as the control nerve” and the protein degradation [3] is listed as “decreased protein degradation”. For the same molecule, the protein synthesis [3] was “no effect on protein synthesis”, the “numbers of both myelinated and unmyelinated axons distal to the repair site” value (sciatic nerve [4]) was “increased numbers of both myelinated and unmyelinated axons” and the “number of myelinated axons proximal to repair” value (sciatic nerve [5]) was “significantly higher number of myelinated axons when compared to control”. For the same molecule, the “inhibition of calcium activated neutral protease” value [6] was “inhibited”, the inhibition of thrombokinase (thrombokinase) was “effective inhibitor” and the ED50 (neurofiber regrowth [7]) was 8 to 75 mg/kg. The inhibition of plasmin (plasmin) was “effective inhibitor”, the “inhibition of cathespin B” value (cathespin B) was “inhibited” and the neurofiber regrowth (neurofiber regrowth [8]) was “significantly enhances neurofiber regrowth”. For the same molecule, the inhibition of kaleikrein (kaleikrein) was “effective inhibitor”, the “inhibition of cathespin L” value (cathespin L) was “inhibited” and the inhibition of papain (papain) was “effective inhibitor”.
